Reference: paper PMC4683533, “Discovery of novel INK4C small-molecule inhibitors to promote human and murine hematopoietic stem cell ex vivo expansion” (Scientific Reports, 2015)

What was measured:
[1] = tested on: human cord blood CD34+ cells (CD34+CD49f+ cells); experiment: human cord blood CD34+ cell ex vivo culture and screen; format: cell-based; details: dose response, Fig. 4B
Method: Based on our study of murine HSCs, we further tested whether these p18SMIs could expand human cord blood CD34^+ cells in ex vivo culture. […] We cultured human cord blood CD34^+ cells for 7 days in HSCs expansion media in the presence of 200 nM of p18SMIs, and then analyzed the percentage and absolute number of CD34^+CD49f^+ cells by flow cytometry. We screened 40 p18SMIs, of which14 compounds could increase the number of CD34^+CD49f^+ cells compared with the control group (Fig. S6). […] Then we conducted a concentration gradient assay on top three p18SMIs with ED50 less than 10 nM (compounds 22, 40 and 41). […] Only in specific doses could they show their expansion effect on human HSCs (Fig. 4B).
Human cord blood samples were collected from consenting donors according to ethically approved procedures at Tianjin Central Hospital of Gynecology Obstetrics (Tianjin, China), under a protocol approved by the Ethical Committee on Medical Research at the Institute of Hematology. Human CD34^+ cord blood cells were isolated using human CD34 MicroBead Kit (MiltenyiBiotec) according to the manufacturer’s protocol after settling red cells with HES and red cells lysis with ACK Lysis Buffer.
Human CD34^+ cells were cultured in expansion medium consisting of StemSpan SFEM (StemCell Technologies) supplemented with 100 ng/mL human stem cell factor (SCF, PeproTech), 50 ng/mL human thrombopoietin (TPO, PeproTech), 100 ng/mL human FMS-like trysine kinase 3 ligand (Flt3L, PeproTech). Human CD34^+ cells were resuspended in expansion medium (5 × 10^4 cells/mL) before being aliquoted in 96-well plates (Costar, Corning Incorporated). Compounds, all with a final concentration of 200 nM, were dissolved in DMSO and added immediately in cell suspension after plating. The final concentration of DMSO in the control group was the same as in the compounds-treated group. Cells were cultured at 37 °C in 5% CO2. Based on the results of primary screening upon human cells and the results of ED50, we chose three compounds for further experiments. The expansion medium was changed to StemSpan SFEM (StemCell Technologies) supplemented with 100 ng/mL human stem cell factor (SCF, PeproTech), 100 ng/mL human thrombopoietin (TPO, PeproTech), 100 ng/mL human FMS-like trysine kinase 3 ligand (Flt3L, PeproTech) and 100 ng/mL human interleukin-6 (IL-6, PeproTech) for better expansion effect. The incubation condition was consistent with before.
Phenotypes analysis of cultured cells was performed on a BD FACS Array (Becton Dickinson Biosciences) using a combination of the following antibodies: APC anti-CD34 (BD Biosciences), PE anti-CD49f (BD Biosciences). Stained cells were washed once with PBS and then measured and analyzed on an FACS analyzer (FACSArray, BD Biosciences).

HSCs (CD34−LKS cells) = experiment: single hematopoietic stem cell in vitro culture (nmEM colony) assay; format: cell-based, mouse; details: single CD34−LKS cell culture, 14 days, ratio of nmEM wells to DMSO control
Method: We biologically assessed the 22 putative p18SMI compounds for their ability to maintain HSCs stem cell characteristics, to be specific self-renewal and multi-lineage differentiation, using single cell cultures. […] Thus, we employed single HSC culture to assess p18SMI compounds’ effect upon HSCs. CD34^−LKS cells from C57BL/6 mice were individually deposited into a 96-well plate (one cell/well). The single cell was cultured for 14 days in 100 μL of serum-free medium (Gibco) containing 100 ng/mL of mouse stem cell factor (SCF), 10 ng/mL of mouse interleukin-3 (IL-3), 25 ng/mL of human thrombopoietin (TPO), 2 U/mL of human erythropoietin (EPO) and differing concentrations of the p18SMI compound. Cells were cultured 14 days for in vitro colony formation and colonies were then cytospined and analyzed by flow cytometry to test the subpopulation of cultured cells. Neutrophils (n), macrophages (m), erythroblasts (E) or megakaryocytes (M) were identified by the cell marker of Gr-1, Mac-1, Ter-119 and CD41 using flow cytometry. The wells from each group that generated all lineages (nmEM) were counted and the ratio to the control group (DMSO) was calculated.
Single CD34^-LKS cells from C57BL/6 mice were individually deposited into each well of a 96-well plate along with 100 μL of serum free medium (Gibco) containing 100 ng/mL of mouse SCF, 10 ng/mL of mouse IL-3, 25 ng/mL of human TPO, 2 U/mL of human EPO and p18SMI compounds (different dilutions). Cells were cultured in a 37 °C, 5% CO2 incubator for 14 days for ex vivo colony formation. Colonies were then cytospined and analyzed using flow cytometry. Neutrophils (n), macrophages (m), erythroblasts (E) or megakaryocytes (M) were identified based on their cell surface maker, Gr-1, Mac-1, Ter119 and CD41. Cells were measured on an FACS analyzer (FACSArray, BD Biosciences). […] The wells from each group that generated all lineages (nmEM) were counted. The ratio of p18SMI compound treatment group to the control group (DMSO-treated) was calculated and fitted to a curve to calculate the ED50 value using GraphPad Prism v6.0.

LT-HSCs = tested on: LT-HSCs; set-up: method as in PMID 25692908; details: CDK inhibitor alone; cited from earlier work
HSCs (bone marrow MNCs) = experiment: cobblestone area forming cells (CAFC) assay with limiting dilution assay (LDA); format: cell-based, mouse; details: day 35
Method: We also investigated whether the increased number of phenotypic SLAM^+LT-HSCs in short-term culture assays was correlated with an increase in functional LT-HSCs. Cobblestone area forming cells (CAFC) assay combined with limiting-dilution assays (LDA) were performed to measure the frequency of HSCs[19][22][30]. Compared with the control group (HSC frequency is 1 in 112,559 of the original plated cells), the frequency of HSC at day 35 (indicating the activity of hematopoietic reconstitution capacity) was 2.7-fold and 3.0-fold higher in the cultures treated with XIE18–6 (HSC frequency is 1 in 42,490 of the original plated cells) and compound 40 (HSC frequency is 1 in 37,524 of the original plated cells) (p < 0.001, Fig. 3C), respectively.
Freshly isolated bone marrow MNCs from mice, 6–8 weeks old, were plated in a 24-well plate with 1 mL Dexter’s medium at a density of 2 × 10^6 cells per mL in the absence or presence of different doses of the tested compounds. The culture was maintained at 33 °C with 5% CO2. The number of cobblestone areas (CAs) was counted weekly. The medium was also replaced with half fresh medium on a weekly basis. For the limiting dilution analysis (LDA) of the test cells, different limiting doses were plated on the irradiated stromal cells in 96-well plates containing 200 μL of M5300 medium (StemCell Technologies) supplemented with 10^−6 M hydrocortisone. Each group was done with 20 replicates well. Small-molecule compounds were added to the co-culture system at different doses. Half of the medium in each well was replaced with fresh medium containing the test compounds weekly. The existence of CA in each well was evaluated under an inverted microscope at weekly intervals for 5 weeks. Based on the Poisson distribution of the negative wells, the frequency of long-term initiating cells was calculated with L-Calc software (StemCell Technologies).

[2] = tested on: LT-repopulating HSCs (CD34-LKS cells); experiment: competitive bone marrow transplantation (cBMT) assay; format: in vivo, mouse
Method: Figure 3 Treatment of c-Kit-enriched murine BM cells with p18SMI compounds enhances HSC expansion. (A) The average number of total cells, HSPCs (Lin^−Sca1^+) and long term (LT)-HSCs (Lin^-Sca1^+CD48^−CD150^+) were analyzed by flow cytometry. (B) Single CD34^−LKS cell were deposited into each well of a 96-well plate, along with differentiation medium plus different concentrations of p18SMI compounds to show the dose-response effect of p18SMI compounds. (C) CAFC-LDA assay of cells treated with XIE18-6, compound 40 and DMSO to reveal the frequency of primitive HSCs. Above data (A–C) is mean ± SEM for all experiments of two or more and were performed in duplicate or triplicate. (D) Experimental design for transplantation (n = 10). CD34^-LKS cells were sorted into 96-well plates at 50 cells/well and cultured for 3 days with cytokine plus 20 μM of compounds or DMSO. Cells from each well were mixed with 2 × 10^6 freshly isolated bone marrow MNCs and co-transplanted by tail-vein injection into lethally irradiated CD45.2 recipient mice. 16 weeks after transplantation, bone marrow MNCs were stained to determine the engraftment level of donor cells. Bone marrow MNCs were also stained for lineage analysis. Multi-lineage differentiation was examined by flow cytometry. GM, T and B indicate lineages for myeloid, T and B cells, respectively. (E,F) The engraftment levels at 16 weeks after primary transplantation, and multi-lineage differentiation profile. Data is mean ± SEM for all experiments (***p < 0.001, **p < 0.01). TEXT PRINTED IN THE PICTURE: (E) #40: Engrafment%: *** 5.93X | (E) XIE18-6: Engrafment%: ** 3.01X DOUBTS OF THE COPYIST ABOUT THIS PICTURE: Panel E: 5.93X and 3.01X are printed on brackets running from #40 and from XIE18-6 to DMSO. No measure is printed beside them, so the axis label 'Engrafment%' was used as the measure.
The increased frequency and total number of functional LT-HSCs after treatment with p18SMI compounds was further confirmed by competitive bone marrow transplantation (cBMT) assay (Fig. 3D). CD34^-LKS cells were first sorted and cultured w/o p18SMI compound for 3 days. Then the cultured cells were gathered and co-transplanted into lethally irradiated mice with competitor cells. […] Moreover, the engraftment of the group treated with compound 40 was double of that of the group treated with XIE18–6.

Compound | expansion of human HSCs in concentration gradient assay [1] | ED50 (activity to promote the expansion of HSCs) (HSCs (CD34−LKS cells)) [nM] | maintenance of HSCs population (LT-HSCs) | also measured
COC(=O)[C@H](NS(=O)(=O)c1ccc(NC(C)=O)cc1)c1ccccc1 [Compound 22] | concentration related |  |  | 
O=C(O)c1ccc(S(=O)(=O)NC2CCCCC2)cc1 [Compound 39, 4-(N-cyclohexylsulfamoyl)benzoic acid] |  | 120 |  | 
CC(=O)Nc1ccc(C(=O)Oc2ccc3c(C(C)C)cc(=O)oc3c2)cc1 [Compound 41, 4-Isopropyl-2-oxo-2H-chromen-7-yl 4-acetamidobenzoate] | concentration related |  |  | 
CC(=O)c1c(C)c2cnc(Nc3ccc(N4CCNCC4)cn3)nc2n(C2CCCC2)c1=O [PD0332991] |  |  | could not maintain HSCs population | 
CC(C)(C)c1cnc(CSc2cnc(NC(=O)C3CCNCC3)s2)o1 [SNS032] |  |  | could not maintain HSCs population | 
CC(=O)Nc1ccc(S(=O)(=O)Oc2ccc3c(C)cc(=O)oc3c2)cc1 [XIE18-6] |  | 105.5 |  | HSC frequency (1 in x of the original plated cells) (HSCs (bone marrow MNCs)): 42,490; frequency of HSC, fold higher than control group (HSCs (bone marrow MNCs)): 2.7 fold; multi-lineage differentiation profile (GM, T, B) compared with the control group ([2]; 16 weeks after transplantation): did not cause predominant growth of any specific lineages; increase in engraftment compared with the DMSO control group ([2]; CD34-LKS cells cultured 3 days with 20 μM compound, co-transplanted with competitor cells into lethally irradiated mice, bone marrow 16 weeks after transplantation): 3.01 fold; increase in engraftment compared with the uncultured group ([2]; cells cultured 3 days with 20 μM compound, 16 weeks after transplantation): 2.20 fold
